Biological target: T1, CETP (Homo sapiens, UniProt P11597)
T1 sequence (P11597 18-493): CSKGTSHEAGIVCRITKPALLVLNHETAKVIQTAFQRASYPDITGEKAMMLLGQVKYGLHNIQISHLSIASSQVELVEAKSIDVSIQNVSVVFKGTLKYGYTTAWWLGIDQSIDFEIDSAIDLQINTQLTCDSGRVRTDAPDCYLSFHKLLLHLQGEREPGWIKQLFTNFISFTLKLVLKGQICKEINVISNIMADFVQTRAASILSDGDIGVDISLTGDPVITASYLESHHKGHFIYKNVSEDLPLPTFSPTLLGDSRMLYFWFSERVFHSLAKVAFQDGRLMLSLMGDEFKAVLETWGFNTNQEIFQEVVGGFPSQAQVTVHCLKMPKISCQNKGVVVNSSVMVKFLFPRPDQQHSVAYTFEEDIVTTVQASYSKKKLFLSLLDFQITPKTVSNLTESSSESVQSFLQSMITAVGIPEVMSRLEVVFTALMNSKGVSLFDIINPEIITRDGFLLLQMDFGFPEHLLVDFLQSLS
Experiment: Assay of CETP Inhibition using Purified Components (Reconstituted Buffer Assay)
Type: biochemical
Parameters: made in house; host or cells: CHO cells (serum-free conditioned medium)
Conditions: IC50, Inhibition of CETP activity in reconstituted buffer assay; transfer of [3H]CE from HDL to LDL
Method: Assay of CETP Inhibition using Purified Components (Reconstituted Buffer Assay)
The ability of compounds to inhibit CETP activity was assessed using an in vitro assay that measured the rate of transfer of radiolabeled cholesteryl ester ([^3H]CE) from HDL donor particles to LDL acceptor particles. Details of the assay are provided by Glenn, K. C. et al. (Glenn and Melton, “Quantification of Cholesteryl Ester Transfer Protein (CETP): A) CETP Activity and B) Immunochemical Assay of CETP Protein,” Meth. Enzymol., 263, 339-351 (1996)). Human recombinant CETP can be obtained from the serum-free conditioned medium of CHO cells transfected with a cDNA for CETP and purified as described by Wang, S. et al. (J. Biol. Chem. 267, 17487-17490 (1992)). To measure CETP activity, [^3H]CE-labeled-HDL, LDL, CETP and assay buffer (50 mM tris(hydroxymethyl)aminomethane, pH 7.4; 150 mM sodium chloride; 2 mM ethylenediamine-tetraacetic acid (EDTA); 1% bovine serum albumin) were incubated in a final volume of 200 μL, for 2 hours at 37° C. in 96 well plates. […] The inhibitors were then diluted 1:1 with CETP in assay buffer, and then 25 μL of that solution was mixed with 175 μL of lipoprotein pool for assay. Following incubation, LDL was differentially precipitated by the addition of 50 μL of 1% (w/v) dextran sulfate/0.5 M magnesium chloride, mixed by vortex, and incubated at room temperature for 10 minutes. A potion of the solution (200 μL) was transferred to a filter plate (Millipore). After filtration, the radioactivity present in the precipitated LDL was measured by liquid scintillation counting.
This value was defined as the IC50.
Examples of IC50 values determined by these methods are specified in Table 9.

Row | SMILES | IC50 [µM]
1 | CC(C)Cc1cccc(CN(CC(O)C(F)(F)F)c2cccc(Oc3ccccc3)c2)c1 (centres unmarked) [Example 598] | 0.54
2 | OC(CN(Cc1ccc(OC(F)(F)F)cc1)c1cccc(F)c1)C(F)(F)F (centres unmarked) [Example 57] | 15

Same assay, conditions: Inhibition of CETP activity in reconstituted buffer assay; transfer of [3H]CE from HDL to LDL; read-out: IC50

Row | SMILES | IC50 [µM]
3 | OC(CN(Cc1cccc(C(F)(F)F)c1)c1cccc(Cl)c1)C(F)(F)F (centres unmarked) [Example 38] | 13
4 | OC(CN(Cc1cccc(OC(F)(F)C(F)F)c1)c1cccc(OCc2ccc(OCc3ccccc3)cc2)c1)C(F)(F)F (centres unmarked) [Example 413] | 17
5 | OC(CN(Cc1ccc2ccccc2n1)c1cccc(OC(F)(F)F)c1)C(F)(F)F (centres unmarked) [Example 362] | 45
6 | OC(CN(Cc1c(F)cccc1F)c1cccc(OC(F)(F)F)c1)C(F)(F)F (centres unmarked) [Example 330] | > 100
7 | OC(CN(Cc1ccc(Oc2ccccc2)cc1)c1cccc(OC(F)(F)F)c1)C(F)(F)F (centres unmarked) [Example 152] | 8
8 | OC(CN(CCCc1ccccc1)c1cccc(OC(F)(F)F)c1)C(F)(F)F (centres unmarked) [Example 337] | > 100
9 | OC(CN(Cc1cccc(-c2ccccc2)c1)c1cccc(Oc2ccccc2)c1)C(F)(F)F (centres unmarked) [Example 606] | 4.2
10 | OC(CN(Cc1cccc(OC(F)(F)C(F)F)c1)c1cccc(OCc2cc(Cl)cc(Cl)c2)c1)C(F)(F)F (centres unmarked) [Example 422] | 0.92
11 | CC(c1cccc([N+](=O)[O-])c1)N(CC(O)C(F)(F)F)c1cccc(Oc2ccccc2)c1 (centres unmarked) [Example 205] | > 100
12 | Cc1cccc(CN(CC(O)C(F)(F)F)c2ccc(Cl)c(C(F)(F)F)c2)c1 (centres unmarked) [Example 67] | 15
13 | N#Cc1ccccc1-c1ccc(CN(CC(O)C(F)(F)F)c2cccc(OC(F)(F)F)c2)cc1 (centres unmarked) [Example 324] | 20
14 | COc1cc(Nc2cccc(N(Cc3cccc(OC(F)(F)C(F)F)c3)CC(O)C(F)(F)F)c2)cc(OC)c1OC (centres unmarked) [Example 306] | 25
15 | OC(CN(Cc1ccc(Cl)s1)c1cccc(OC(F)(F)F)c1)C(F)(F)F (centres unmarked) [Example 321] | 5
16 | OC(CN(Cc1ccc(OC(F)(F)F)cc1)c1ccccc1)C(F)(F)F (centres unmarked) [Example 59] | 7
17 | N#Cc1ccc(COc2cccc(N(Cc3cccc(OC(F)(F)C(F)F)c3)CC(O)C(F)(F)F)c2)cc1 (centres unmarked) [Example 384] | 1.6
18 | OC(CNCc1cccc(OC(F)(F)F)c1)C(F)(F)F (centres unmarked) [632A] | > 50
19 | CCCCc1ccc(Oc2cccc(N(Cc3cccc(OC(F)(F)C(F)F)c3)CC(O)C(F)(F)F)c2)cc1 (centres unmarked) [Example 261] | 1.7
20 | Cc1cccc(CN(CC(O)C(F)(F)F)c2ccc(F)c(F)c2)c1 (centres unmarked) [Example 17] | 45
21 | O=C(O)c1cccc(CN(CC(O)C(F)(F)F)c2cccc(OC(F)(F)F)c2)c1 (centres unmarked) [Example 356] | > 100
22 | Cc1ccc(-c2noc(-c3ccc(Nc4cccc(N(Cc5cccc(OC(F)(F)C(F)F)c5)CC(O)C(F)(F)F)c4)cc3)n2)cc1 (centres unmarked) [Example 300] | 31
23 | Cc1ccc(CN(CC(O)C(F)(F)F)c2cccc(C)c2)cc1 (centres unmarked) [Example 12] | > 100
24 | OC(CN(Cc1cccc(OC(F)(F)C(F)F)c1)c1cccc(Oc2ccc(Cl)cc2Cl)c1)C(F)(F)F (centres unmarked) [Example 231] | 0.34
25 | COc1ccc(N(Cc2ccc(C(F)(F)F)cc2)CC(O)C(F)(F)F)cc1 (centres unmarked) [Example 23] | 15
26 | OC(CNc1cccc(Oc2ccccc2)c1)C(F)(F)F (centres unmarked) [588B] | > 100

Now from value to compound:

Row | IC50 [µM] | SMILES
27 | 2.1 | CCCC(Oc1cccc(N(Cc2cccc(OC(F)(F)C(F)F)c2)CC(O)C(F)(F)F)c1)C(=O)OCC (centres unmarked) [Example 508]
28 | > 100 | CCCN(C)C(=O)c1cccc(CN(CC(O)C(F)(F)F)c2cccc(Oc3ccccc3)c2)c1 (centres unmarked) [compound 614]
29 | > 50 | OC(CN(Cc1cccc(OC(F)(F)C(F)F)c1)c1cccc(OCc2nccn2Cc2ccccc2)c1)C(F)(F)F (centres unmarked) [Example 430]
30 | 1.8 | OC(CN(Cc1cccc(OC(F)(F)C(F)F)c1)c1cccc(-c2ccc(Cl)c(Cl)c2)c1)C(F)(F)F (centres unmarked) [Example 561]
31 | 5.6 | OC(CN(Cc1cccc(OC(F)(F)C(F)F)c1)c1cccc(OCc2ccncc2)c1)C(F)(F)F (centres unmarked) [Example 433]
32 | 1.8 | CCc1cc(Oc2cccc(N(Cc3cccc(OC(F)(F)C(F)F)c3)C(CO)C(F)(F)F)c2)ccc1Cl (centres unmarked) [Example 1670]
33 | 1.8 | CC(=O)c1ccc(Sc2cccc(N(Cc3cccc(OC(F)(F)C(F)F)c3)CC(O)C(F)(F)F)c2)cc1 (centres unmarked) [Example 478]
34 | 3 | O=[N+]([O-])c1cccc(Cc2cccc(N(Cc3cccc(OC(F)(F)C(F)F)c3)CC(O)C(F)(F)F)c2)c1 (centres unmarked) [Example 516]
35 | > 100 | Cc1ccc(CN(CC(O)C(F)(F)F)c2ccccc2C(F)(F)F)cc1 (centres unmarked) [Example 673]
36 | > 50 | O=C(Nc1ccc(F)cc1)Nc1cccc(N(Cc2cccc(OC(F)(F)C(F)F)c2)CC(O)C(F)(F)F)c1 (centres unmarked) [Example 545, N-(4-fluorophenyl)-N′-[3-[[[3-(1,1,2,2-tetrafluoroethoxy)phenyl]methyl]-(3,3,3-trifluoro-2-hydroxypropyl)amino]phenyl]urea]
37 | 2.7 | OC(CN(Cc1cccc(OC(F)(F)C(F)F)c1)c1cccc(NCc2ccc(F)cc2)c1)C(F)(F)F (centres unmarked) [Example 543]
38 | > 50 | OC(CN(Cc1cccc(OC(F)(F)C(F)F)c1)c1cccc(SC2CCNCC2)c1)C(F)(F)F (centres unmarked) [Example 476]
39 | 13 | O=C(NC1CCCC1)c1cccc(N(Cc2cccc(OC(F)(F)C(F)F)c2)CC(O)C(F)(F)F)c1 (centres unmarked) [Example 461]
40 | 4.1 | COCc1cccc(CN(CC(O)C(F)(F)F)c2cccc(Oc3ccccc3)c2)c1 (centres unmarked) [Example 627, 3-[[(3-phenoxyphenyl)(3,3,3-trifluoro-2-hydroxypropyl)amino]methyl]methoxymethylbenzene]
41 | 1.5 | OC(CN(Cc1cccc(OC(F)(F)C(F)F)c1)c1cccc(Oc2ncccc2C(F)(F)F)c1)C(F)(F)F (centres unmarked) [Example 444]
42 | 20 | OC(CN(Cc1ccc(Cl)cc1)Cc1ccc(C(F)(F)F)cc1)C(F)(F)F (centres unmarked) [compound 173]
43 | 10 | CCN(C)C(=O)c1cccc(CN(CC(O)C(F)(F)F)c2cccc(Oc3ccccc3)c2)c1 (centres unmarked) [compound 613]
44 | > 50 | NC(=O)COc1cccc(N(Cc2cccc(OC(F)(F)C(F)F)c2)CC(O)C(F)(F)F)c1 (centres unmarked) [Example 500]
45 | > 50 | O=C(O)c1ccc(-c2cccc(N(Cc3cccc(OC(F)(F)C(F)F)c3)CC(O)C(F)(F)F)c2)cc1 (centres unmarked) [Example 573]
46 | > 50 | COc1cccc(C(=O)Nc2cccc(N(Cc3cccc(OC(F)(F)C(F)F)c3)CC(O)C(F)(F)F)c2)c1 (centres unmarked) [Example 537]
47 | 1.2 | CC(C)COc1cccc(N(Cc2cccc(OC(F)(F)C(F)F)c2)CC(O)C(F)(F)F)c1 (centres unmarked) [Example 492]
48 | 13 | OC(CN(Cc1cccc(Cc2ccccc2)c1)c1cccc(Oc2ccccc2)c1)C(F)(F)F (centres unmarked) [Example 596, 3-[(3-phenoxyphenyl)[[3-(phenylmethyl)phenyl]methyl]amino]-1,1,1-trifluoro-2-propanol]
49 | 1.5 | CCOC(=O)c1cccc(N(Cc2cccc(OC(F)(F)C(F)F)c2)CC(O)C(F)(F)F)c1 (centres unmarked) [Example 456B, ethyl 3-[[[3-(1,1,2,2-tetra-fluoroethoxy)phenyl]methyl](3,3,3-trifluoro-2-hydroxypropyl)amino]-benzoate]
50 | > 50 | CC(C)S(=O)(=O)Nc1cccc(N(Cc2cccc(OC(F)(F)C(F)F)c2)CC(O)C(F)(F)F)c1 (centres unmarked) [Example 534]
